The subject of data set [1] is rat passive peritoneal anaphylaxis. The data set can be described thus: Rat passive peritoneal anaphylaxis (PPA). Conditions: mean ± SEM, 3-7 rats per group. Format: in vivo. From the text: (a) inhibit rat passive peritoneal anaphylaxis; and
(a) Rat passive peritoneal anaphylaxis (PPA)
The method has been described previously (Ross, Janet W., Smith, H. and Spicer, Barbara A. Increased vascular permeability during passive peritoneal anaphylaxis in the rat. Int. Arch. Allergy appl. Immun. 51, 226, 1976.)
Serum containing heat-labile homocytotropic antibody was raised in rats to ovalbumin by a method similar to that described by Mota, I. (The mechanism of anaphylaxis. I. Production and biological properties of mast cell sensitising antibody. Immunology, 7, 681; 1964). Male Wistar rats of 250-300 g were given intraperitoneal injections of 0.5 ml of Bordetella pertussis vaccine (4×10^10 organisms/ml; Burroughs Wellcome, London) and subcutaneous injections of 0.5 ml of an emulsion of 100 mg of ovalbumin in 2 ml of isotonic saline and 3 ml of Freund's incomplete adjuvant. The rats were bled by cardiac puncture on day 18, the blood was pooled and the serum separated, stored at -20° C. and thawed only once before use. The serum produced PCA activity in recipient rats down to a dilution of 1:32 to 1:64 after 72 hr and persisted for several days. This activity was lost to a dilution of 1:2 by heating at 56° for 4 hr even when the sensitising period was reduced to 4 hr.
Passive peritoneal anaphylaxis
Rats were given intraperitoneal injections of 2 ml of a 1:5 dilution of the rat anti-serum in isotonic saline. 2 hr later 0.3 ml of a 5% solution of Pontamine Sky Blue (Raymond A. Lamb, London) is isotonic saline was injected intravenously, followed by an intraperitoneal injection of the test compound in 1 ml of saline; (control rats received 1 ml of saline); followed 30 sec. later by an intraperitoneal injection of 5 ml of a Tyrode solution containing 50 μg/ml heparin and 0.4 mg/ml of ovalbumin. The concentrations of the compounds were quoted as those in the 6 ml of fluid injected intraperitoneally. Extractly 5 min. after challenge the rats were stunned and bled and their peritoneal fluids were collected by opening their peritoneal cavities over funnels into polycarbonate tubes in ice. The supernatants were separated from the cellular residue by centrifuging at 150 g for 5 min. and any samples obviously contaminated with blood were discarded and the remainder were retained for estimation of dye, histamine and SRS-A. Groups of at least 5 rats were used for each dose of compound and the treatments were randomized.
Assay of peritoneal fluids
Collected peritoneal fluids were immediately cooled to 0° C. and centrifuged and the supernatant fluids assayed for dye within 2 hr. 0.5-ml samples of the supernatants were added to 1 ml of 12% trichloracetic acid and stored at -20° C. and used to assay for histamine. The remainders of the supernatant fluids were placed in a boiling water bath for 5 min. and stored frozen at -20° C. until assayed for SRS-A.
The optical densities (OD) at 625 nm of the supernatants were determined. Samples were taken from supernatants with an OD greater than 2 and diluted in Tyrode's solution before reading.
Histamine was assayed using an automated spectrofluorimetric system (Technicon Autoanalyser) by a method similar to that of Evans, D. P., Lewis, J. A. and Thomson, D. S.: (An automated fluorimetric assay for the rapid determination of histamine in biological fluids. Life Sci. 12,327, 1973).
SRS-A was assayed on the isolated guinea pig ileum preparation in the presence of atropine (5×10^-7 M) and mepyramine maleate (10^-6 M), the latter to abolish the histamine response. (Brocklehurst, W. E. The release of histamine and formulation of a slow reacting substance (SRS-A) during anaphylactic shock. J. Physiol., Lond. 151, 416, 1960). Bulked peritoneal fluids from passively sensitised and challenged rats were centrifuged, heated, stored at -20° C. in 0.5 ml aliquots, and used as a reference SRS-A standard, and arbitrarily designated as containing 10 Units per ml. […]

In data set [2] the target is T1, histamine (spasmogenic effects) on isolated guinea pig ileum (Cavia porcellus, UniProt P31389).
T1 construct: isolated guinea pig ileum; from tissue; host or cells: isolated guinea pig ileum
T1 sequence (P31389 whole entry): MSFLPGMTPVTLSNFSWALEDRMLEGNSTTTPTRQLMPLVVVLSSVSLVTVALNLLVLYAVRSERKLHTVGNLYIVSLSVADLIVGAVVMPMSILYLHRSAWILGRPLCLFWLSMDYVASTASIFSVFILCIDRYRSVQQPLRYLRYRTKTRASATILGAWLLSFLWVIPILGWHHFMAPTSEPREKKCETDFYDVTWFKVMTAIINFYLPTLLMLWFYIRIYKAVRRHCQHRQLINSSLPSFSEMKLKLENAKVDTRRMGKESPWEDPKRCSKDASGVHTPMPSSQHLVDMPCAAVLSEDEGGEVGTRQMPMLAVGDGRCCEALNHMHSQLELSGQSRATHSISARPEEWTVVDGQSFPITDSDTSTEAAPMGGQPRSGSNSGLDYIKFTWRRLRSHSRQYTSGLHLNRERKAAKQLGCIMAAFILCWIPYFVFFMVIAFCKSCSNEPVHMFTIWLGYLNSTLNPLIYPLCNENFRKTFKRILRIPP
The data set can be described thus: Anti-histamine activity in vitro on guinea pig ileum (pA2). Conditions: for Kb: read-out: pA2 Mean ± SEM (antihistamine activity in vitro) (converted). As for the experimental part:
(b) antagonise the spasmogenic effects of histamine on isolated guinea pig ileum.
(b) Measurement of anti-histamine activity in vitro on guinea pig ileum using the […]
The pA2 of the compound was determined in a similar manner to that described by Schild, H. O. (pA, A new scale for the measurement of drug antagonism. Brit. J. Pharmacol. 2, 189, 1947).

For data set [3], the system named is mice. Briefly: Acute intravenous toxicity in mice. Format: in vivo, mouse.
The mark [4] stands for this setting: contact time 10.0 min, (part assay) for 4d.

We go through 6 compounds from US4263299A, “Heterocyclic coumarin derivatives” (Beecham Group Limited, priority 1978, dated 1981).

Like-named read-outs stand apart in the source and are kept apart here.

For the compound `O=c1oc2cc(OCC(O)CN3CCN(Cc4ccc(Cl)cc4)CC3)ccc2c(O)c1[N+](=O)[O-]` (centres unmarked) [Example 2d, 1-(4-Chlorobenzyl)-4-[2-hydroxy-3-(4-hydroxy-3-nitrocoumarin-7-yloxy)propyl]piperazine], in data set [1] (2 × 10^-5 M injected i.p.), the “Dye concentration in peritoneal fluid as % of that in control rats not given compound” value was determined as 36 ± 4%, the “Histamine concentration in peritoneal fluid as % of that in control rats not given compound” value is 13 ± 0.9% and the “SRSA concentration in peritoneal fluid as % of that in control rats not given compound” value came to 47 ± 11%. Also, in data set [1] (2 × 10^-6 M injected i.p.), the “Dye concentration in peritoneal fluid as % of that in control rats not given compound” value was 46 ± 4%, the “Histamine concentration in peritoneal fluid as % of that in control rats not given compound” value was 23 ± 1.0% and the “SRSA concentration in peritoneal fluid as % of that in control rats not given compound” value was 65 ± 13%. The Kb in data set [2] (contact time 0.5 min) was 50.1 nM. In data set [2] (contact time 2.0 min), the Kb is 20 nM. The “pA2 Mean ± SEM (antihistamine activity in vitro)” value (“pA2 Mean ± SEM” for short) in data set [2] (setting [4]) came out at 8.3.

As for `O=c1oc2cc(OCCCN3CCN(Cc4ccccc4)CC3)ccc2c(O)c1[N+](=O)[O-]` [Example 6d, 1-Benzyl-4-[3-(4-hydroxy-3-nitrocoumarin-7-yloxy)propyl]piperazine], in data set [1] (2 × 10^-4 M injected i.p.), the “Dye concentration in peritoneal fluid as % of that in control rats not given compound” value worked out at 67 ± 10%, the “Histamine concentration in peritoneal fluid as % of that in control rats not given compound” value was found to be 12 ± 1.0% and the “SRSA concentration in peritoneal fluid as % of that in control rats not given compound” value turned out to be 55 ± 5%. Further, in data set [1] (2 × 10^-5 M injected i.p.), the “Dye concentration in peritoneal fluid as % of that in control rats not given compound” value turned out to be 91 ± 12%, the “Histamine concentration in peritoneal fluid as % of that in control rats not given compound” value was 56 ± 8% and the “SRSA concentration in peritoneal fluid as % of that in control rats not given compound” value is 86 ± 14%. The Kb in data set [2] (contact time 0.5 min) was 79.4 nM. Moreover, the Kb in data set [2] (contact time 2.0 min) is 25.1 nM. In data set [2] (setting [4]), the “pA2 Mean ± SEM” value was found to be 7.9.

As to `O=c1oc2cc(OCCCN3CCN(Cc4ccc(Cl)cc4)CC3)ccc2c(O)c1[N+](=O)[O-]` [Example 1f, 1-(4-Chlorobenzyl)-4-[3-(4-hydroxy-3-nitrocoumarin-7-yloxy)propyl]piperazine], the entries for the “Dye concentration in peritoneal fluid as % of that in control rats not given compound” value in data set [1] (2 × 10^-6 M injected i.p.), in data set [1] (2 × 10^-7 M injected i.p.) and in data set [1] (2 × 10^-8 M injected i.p.) were 32.1 ± 3.6%, 88.1 ± 8.3% and 100 ± 16.7%, respectively. For the same compound, the “Histamine concentration in peritoneal fluid as % of that in control rats not given compound” value in data set [1] (2 × 10^-6 M injected i.p.) turned out to be 28.4 ± 3.4%; in data set [1] (2 × 10^-7 M injected i.p.), 75.8 ± 7.5%; in data set [1] (2 × 10^-8 M injected i.p.) it was 99.6 ± 8.3%. Besides, the “SRSA concentration in peritoneal fluid as % of that in control rats not given compound” value in data set [1] (2 × 10^-6 M injected i.p.) is on record as 62.5 ± 17.2%; in data set [1] (2 × 10^-7 M injected i.p.), 71.8 ± 14.8%; in data set [1] (2 × 10^-8 M injected i.p.), 100 ± 14.8%. The Kb is 15.8 nM in data set [2] (contact time 0.5 min), 2.51 nM in data set [2] (contact time 2.0 min) and 0.631 nM in data set [2] (setting [4]). In addition, the “Deaths in mice at the high dose” value in data set [3] (mice, intravenous, 300 mg/kg, group of three) is listed as “all animals died”. For the same compound, the “Deaths in mice during four days” value in data set [3] (mice, intravenous, 1, 3 and 10 mg/kg, three groups of ten) is reported as “No deaths occurred”. Further, the “Deaths in mice at the two lower doses” value in data set [3] (mouse, in vivo) was “none”.

Consider `CCCc1c(OCC(O)CN2CCN(Cc3ccc(Cl)cc3)CC2)ccc2c(O)c([N+](=O)[O-])c(=O)oc12` (centres unmarked) [Example 3d, 1-(4-chlorobenzyl)-4-[2-hydroxy-3-(4-hydroxy-3-nitro-8-n-propylcoumarin-7-yloxy)propyl]piperazine], for which, in data set [1] (2 × 10^-5 M injected i.p.), the “Dye concentration in peritoneal fluid as % of that in control rats not given compound” value was 47 ± 6%, the “Histamine concentration in peritoneal fluid as % of that in control rats not given compound” value was determined as 15 ± 2% and the “SRSA concentration in peritoneal fluid as % of that in control rats not given compound” value amounted to 75 ± 9%. In addition, in data set [1] (2 × 10^-6 M injected i.p.), the “Dye concentration in peritoneal fluid as % of that in control rats not given compound” value was determined as 79 ± 9%, the “Histamine concentration in peritoneal fluid as % of that in control rats not given compound” value was determined as 55 ± 9% and the “SRSA concentration in peritoneal fluid as % of that in control rats not given compound” value is listed as 81 ± 6%. Besides, the Kb in data set [2] (contact time 0.5 min) was 25.1 nM. For the same compound, the Kb in data set [2] (contact time 2.0 min) is 10 nM. In addition, the “pA2 Mean ± SEM” value in data set [2] (setting [4]) came out at 8.4.

Regarding `O=c1oc2cc(OCCN3CCN(Cc4ccc(Cl)cc4)CC3)ccc2c(O)c1[N+](=O)[O-]` [Example 4d, 1-(4-Chlorobenzyl)-4-[2-(4-hydroxy-3-nitrocoumarin-7-yloxy)ethyl]piperazine], the “Dye concentration in peritoneal fluid as % of that in control rats not given compound” value was 40 ± 7% in data set [1] (2 × 10^-4 M injected i.p.) and 65 ± 11% in data set [1] (2 × 10^-5 M injected i.p.). For the same compound, the “Histamine concentration in peritoneal fluid as % of that in control rats not given compound” value in data set [1] (2 × 10^-4 M injected i.p.) came out at 11 ± 0.9%; in data set [1] (2 × 10^-5 M injected i.p.) it was 39 ± 8%. The “SRSA concentration in peritoneal fluid as % of that in control rats not given compound” value turned out to be 26 ± 6% in data set [1] (2 × 10^-4 M injected i.p.) and 73 ± 7% in data set [1] (2 × 10^-5 M injected i.p.). For the same compound, the Kb is 63.1 nM in data set [2] (contact time 0.5 min), 50.1 nM in data set [2] (contact time 2.0 min) and roughly 126 nM in data set [2] (setting [4]).

For the compound `O=c1oc2cc(CN3CCN(Cc4ccc(Cl)cc4)CC3)ccc2c(O)c1[N+](=O)[O-]` [Example 5e, 1-(4-Chlorobenzyl)-4-[(4-hydroxy-3-nitrocoumarin-7-yl)methyl]piperazine], the results for the “Dye concentration in peritoneal fluid as % of that in control rats not given compound” value in data set [1] (2 × 10^-4 M injected i.p.), in data set [1] (2 × 10^-5 M injected i.p.) and in data set [1] (2 × 10^-6 M injected i.p.) were 28 ± 9%, 88 ± 14% and 103 ± 13%, respectively. Further, the “Histamine concentration in peritoneal fluid as % of that in control rats not given compound” value is given as 17 ± 3% in data set [1] (2 × 10^-4 M injected i.p.), 31 ± 2% in data set [1] (2 × 10^-5 M injected i.p.) and 93 ± 18% in data set [1] (2 × 10^-6 M injected i.p.). In addition, the “SRSA concentration in peritoneal fluid as % of that in control rats not given compound” value is 67 ± 15% in data set [1] (2 × 10^-5 M injected i.p.) and 94 ± 10% in data set [1] (2 × 10^-6 M injected i.p.). Besides, the Kb in data set [2] (contact time 0.5 min) and in data set [2] (contact time 2.0 min) was 2000 nM each time. Further, the “pA2 Mean ± SEM” value in data set [2] (setting [4]) was 5.6.
